Assay results taken from the NIST ThermoML archive (doi:10.1016/j.jct.2016.03.026).

Experiment: xn = mol fraction of the nth substance listed
Details: 313.15 K, Fluid (supercritical or subcritical phases), x1 = 0.97; for mass density: Vibrating tube method; for speed of sound: Frequency=5 MHz, Pulse-echo method

O=C=O [carbon dioxide] + CO
Details	mass density [kg/m3]	speed of sound [m/s]
17250 kPa	821	–
17275 kPa	821.23	–
17300 kPa	821.48	–
17325 kPa	821.73	–
17350 kPa	821.98	–
17375 kPa	822.18	–
17400 kPa	822.42	–
17425 kPa	822.65	–
17450 kPa	822.87	–
17475 kPa	823.11	–
17500 kPa	823.28	–
17525 kPa	823.52	–
17550 kPa	823.71	–
17575 kPa	823.99	–
17600 kPa	824.21	–
17625 kPa	824.46	–
17650 kPa	824.71	–
17675 kPa	824.95	–
17700 kPa	825.17	–
17725 kPa	825.45	–
17750 kPa	825.67	–
17775 kPa	825.94	–
17800 kPa	826.17	–
17825 kPa	826.41	–
17850 kPa	826.64	–
17875 kPa	826.87	–
17900 kPa	827.14	–
17925 kPa	827.38	–
17950 kPa	827.61	–
17975 kPa	827.85	–
18000 kPa	828.1	–
18025 kPa	828.35	–
18050 kPa	828.6	–
18075 kPa	828.84	–
18100 kPa	829.11	–
18125 kPa	829.36	–
18150 kPa	829.59	–
18175 kPa	829.87	–
18200 kPa	830.13	–
18225 kPa	830.35	–
18250 kPa	830.62	–
18275 kPa	830.86	–
18300 kPa	831.12	–
18325 kPa	831.37	–
18350 kPa	831.62	–
18375 kPa	831.85	–
18400 kPa	832.11	–
18425 kPa	832.31	–
18450 kPa	832.53	–
18475 kPa	832.8	–
18500 kPa	833.03	–
18525 kPa	833.28	–
18550 kPa	833.5	–
18575 kPa	833.75	–
18600 kPa	833.97	–
18625 kPa	834.2	–
18650 kPa	834.43	–
18675 kPa	834.69	–
18700 kPa	834.94	–
18725 kPa	835.15	–
18750 kPa	835.38	–
18775 kPa	835.62	–
18800 kPa	835.84	–
18825 kPa	836.06	–
18850 kPa	836.28	–
18875 kPa	836.55	–
18900 kPa	836.78	–
18925 kPa	837.02	–
18950 kPa	837.22	–
18975 kPa	837.47	–
19000 kPa	837.72	–
19025 kPa	837.93	–
19050 kPa	838.15	–
19075 kPa	838.38	–
19100 kPa	838.61	–
19125 kPa	838.87	–
19150 kPa	839.12	–
19175 kPa	839.32	–
19200 kPa	839.61	–
19225 kPa	839.82	–
19250 kPa	840.03	–
19275 kPa	840.27	–
19300 kPa	840.49	–
19325 kPa	840.71	–
19350 kPa	840.94	–
19375 kPa	841.18	–
19400 kPa	841.4	–
19425 kPa	841.61	–
19450 kPa	841.84	–
19475 kPa	842.08	–
19500 kPa	842.31	–
19525 kPa	842.53	–
19550 kPa	842.75	–
19575 kPa	842.96	–
19600 kPa	843.19	–
19625 kPa	843.37	–
19650 kPa	843.59	–
19675 kPa	843.84	–
19700 kPa	844.02	–
19725 kPa	844.25	–
19750 kPa	844.43	–
19775 kPa	844.64	–
19800 kPa	844.89	–
19825 kPa	845.06	–
19850 kPa	845.27	–
19875 kPa	845.47	–
19900 kPa	845.69	–
19925 kPa	845.91	–
19950 kPa	846.1	–
19975 kPa	846.29	–
20000 kPa	846.53	–
31890 kPa	–	648.6
34940 kPa	–	674.9
39990 kPa	–	714.5
44940 kPa	–	749.7
49940 kPa	–	782
54960 kPa	–	812.2
60140 kPa	–	841.3
65170 kPa	–	867.7
70010 kPa	–	891.8
75170 kPa	–	916.2
80060 kPa	–	938.2
